# Measured values published in patent US9855268B2, “Triazolo[4,5-d]pyrimidine derivatives” (Merck Patent GmbH, priority 2013, dated 2018).
# Where a name gives a salt, the structure may show the parent alone.
# Biological target: GCN2 (Homo sapiens, UniProt Q9P2K8)
# Test: GCN2 enzyme assay (TR-FRET Lanthascreen, GFP-eIF2alpha phosphorylation)
# Format: biochemical
# Details: 10 μM ATP, 80 nM GFP-eIF2a, 30 nM GCN2
# Summary of the method: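 Phosphorylation of GFP-eIF2alpha (80 nM) by GCN2 run at room temperature with 10 μM ATP. After EDTA quench, product quantified by Lanthascreen TR-FRET (antibody–GFP complex, 340 nm excitation).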
# Sequence of GCN2 (Q9P2K8 whole entry, species assumed): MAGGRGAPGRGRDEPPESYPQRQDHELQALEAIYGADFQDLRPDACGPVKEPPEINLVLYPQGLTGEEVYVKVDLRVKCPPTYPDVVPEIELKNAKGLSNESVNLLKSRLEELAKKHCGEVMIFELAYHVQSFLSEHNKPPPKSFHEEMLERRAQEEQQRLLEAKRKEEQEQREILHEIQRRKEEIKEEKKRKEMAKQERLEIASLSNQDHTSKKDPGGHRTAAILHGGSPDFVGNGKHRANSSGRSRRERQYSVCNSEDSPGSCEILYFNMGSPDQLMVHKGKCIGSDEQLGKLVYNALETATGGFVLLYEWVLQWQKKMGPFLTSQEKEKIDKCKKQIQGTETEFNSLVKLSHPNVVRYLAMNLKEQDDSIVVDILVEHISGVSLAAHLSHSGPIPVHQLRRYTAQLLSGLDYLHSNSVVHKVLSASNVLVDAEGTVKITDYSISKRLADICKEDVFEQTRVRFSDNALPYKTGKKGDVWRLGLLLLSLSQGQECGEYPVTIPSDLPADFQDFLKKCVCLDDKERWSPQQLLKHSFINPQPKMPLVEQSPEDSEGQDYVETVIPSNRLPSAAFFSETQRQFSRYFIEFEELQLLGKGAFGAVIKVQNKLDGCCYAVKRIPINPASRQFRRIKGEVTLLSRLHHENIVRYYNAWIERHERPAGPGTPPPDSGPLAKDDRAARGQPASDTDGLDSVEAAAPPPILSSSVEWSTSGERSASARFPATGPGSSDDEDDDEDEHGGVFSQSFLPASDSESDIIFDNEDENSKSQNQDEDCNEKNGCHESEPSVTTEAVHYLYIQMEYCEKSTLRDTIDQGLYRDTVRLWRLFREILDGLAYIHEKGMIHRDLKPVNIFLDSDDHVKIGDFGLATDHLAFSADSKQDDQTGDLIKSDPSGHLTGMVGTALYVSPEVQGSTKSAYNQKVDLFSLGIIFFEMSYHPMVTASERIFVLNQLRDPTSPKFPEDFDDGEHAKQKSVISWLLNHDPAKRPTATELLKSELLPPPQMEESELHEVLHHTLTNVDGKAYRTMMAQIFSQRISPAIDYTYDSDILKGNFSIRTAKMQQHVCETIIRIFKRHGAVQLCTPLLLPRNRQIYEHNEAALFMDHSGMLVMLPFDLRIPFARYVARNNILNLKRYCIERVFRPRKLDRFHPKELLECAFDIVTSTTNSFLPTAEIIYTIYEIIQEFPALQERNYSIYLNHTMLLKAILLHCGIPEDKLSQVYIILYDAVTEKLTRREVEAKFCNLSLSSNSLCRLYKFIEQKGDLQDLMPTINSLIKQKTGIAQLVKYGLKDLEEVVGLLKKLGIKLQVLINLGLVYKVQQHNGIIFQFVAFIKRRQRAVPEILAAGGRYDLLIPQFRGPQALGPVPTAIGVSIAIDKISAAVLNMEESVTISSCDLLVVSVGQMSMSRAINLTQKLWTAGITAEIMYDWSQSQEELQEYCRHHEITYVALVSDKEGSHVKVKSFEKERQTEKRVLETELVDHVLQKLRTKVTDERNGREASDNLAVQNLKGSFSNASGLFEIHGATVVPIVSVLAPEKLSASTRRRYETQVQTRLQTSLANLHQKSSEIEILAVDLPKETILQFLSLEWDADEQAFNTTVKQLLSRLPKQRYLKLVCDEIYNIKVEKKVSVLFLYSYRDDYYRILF
row,SMILES,IC50 [nM]
1,"COc1ccc(-n2nnc3cnc(N[C@@H]4CCN(C(=O)CCN(C)C)C4)nc32)cc1 [A85, 3-dimethylamino-1-{(R)-3-[3-(4-methoxy-phenyl)-3H-[1,2,3]triazolo[4,5-d]-pyrimidin-5-ylamino]-pyrrolidin-1-yl}-propan-1-one formate]",< 1000
2,"COc1ccc(-n2nnc3cnc(NC4CCN(CCN5CCCC5)CC4)nc32)cc1 [A86, [3-(4-methoxy-phenyl)-3H-[1,2,3]triazolo[4,5-d]pyrimidin-5-yl]-[1-(2-pyrrolidin-1-yl-ethyl)-piperidin-4-yl]-amine]",< 1000
3,"COc1ccc(-n2nnc3cnc(N[C@@H]4CCN(C(=O)Cn5cccn5)C4)nc32)cc1 [A90, 1-{(R)-3-[3-(4-methoxy-phenyl)-3H-[1,2,3]triazolo[4,5-d]pyrimidin-5-ylamino]-pyrrolidin-1-yl}-2-pyrazol-1-yl-ethanone]",< 1000
4,"N[C@H]1CC[C@H](Nc2ncc3nnn(-c4ccc(OCCN5CCOCC5)cc4)c3n2)CC1 [A95, trans-N-{3-[4-(2-morpholin-4-yl-ethoxy)-phenyl]-3H-[1,2,3]triazolo[4,5-d]pyrimidin-5-yl}-cyclohexane-1,4-diamine]",< 1000
5,"N[C@H]1CC[C@H](Nc2ncc3nnn(-c4ccc(N5CCOCC5)cn4)c3n2)CC1 [A96, trans-N-[3-(5-morpholin-4-yl-pyridin-2-yl)-3H-[1,2,3]triazolo[4,5-d]pyrimidin-5-yl]-cyclohexane-1,4-diamine]",1000 to 5000
6,"Cc1ccc2cc(-n3nnc4cnc(N[C@@H]5CCNC5)nc43)ccc2n1 [A126, [3-(2-methyl-quinolin-6-yl)-3H-[1,2,3]triazolo[4,5-d]pyrimidin-5-yl]-(R)-pyrrolidin-3-yl-amine]",< 1000
7,"NC(=O)[C@@H]1CC[C@@H](Nc2ncc3nnn(-c4ccc(N5CCOCC5=O)c(F)c4)c3n2)C1 [A154, (1R,3R)-3-{3-[3-fluoro-4-(3-oxo-morpholin-4-yl)-phenyl]-3H-[1,2,3]triazolo[4,5-d]pyrimidin-5-ylamino}-cyclopentanecarboxylic acid amide]",< 1000
8,"O=C(O)[C@H]1CC[C@@H](Nc2ncc3nnn(-c4ccc5ncccc5c4)c3n2)C1 [A188, (1S,3R)-3-(3-quinolin-6-yl-3H-[1,2,3]triazolo[4,5-d]pyrimidin-5-ylamino)-cyclopentanecarboxylic acid]",< 1000
9,"O[C@@H]1CC[C@@H](Nc2ncc3nnn(-c4ccc(-c5cnn(Cc6cccnc6)c5)cc4)c3n2)C1 [A231, (1R,3R)-3-{3-[4-(1-pyridin-3-ylmethyl-1H-pyrazol-4-yl)-phenyl]-3H-[1,2,3]triazolo[4,5-d]pyrimidin-5-ylamino}-cyclopentanol]",< 1000
10,"NC(=O)[C@@H]1CC[C@@H](Nc2ncc3nnn(-c4ccc(-c5cnn(CCO)c5)cn4)c3n2)C1 [A261, (1R,3R)-3-(3-{5-[1-(2-hydroxy-ethyl)-1H-pyrazol-4-yl]-pyridin-2-yl}-3H-[1,2,3]triazolo[4,5-d]pyrimidin-5-ylamino)-cyclopentanecarboxylic acid amide]",< 1000
11,"COc1ccc(-n2nnc3cnc(N[C@@H]4CCN(S(C)(=O)=O)C4)nc32)cc1 [A269a, ((R)-1-Methanesulfonyl-pyrrolidin-3-yl)-[3-(4-methoxy-phenyl)-3H-[1,2,3]triazolo[4,5-d]pyrimidin-5-yl]-amine]",< 1000
12,"Cc1ccc2cc(-n3nnc4cnc(N[C@@H]5CCN(C(N)=O)C5)nc43)ccc2n1 [A284, (R)-3-[3-(2-methyl-quinolin-6-yl)-3H-[1,2,3]triazolo[4,5-d]pyrimidin-5-ylamino]-pyrrolidine-1-carboxylic acid amide]",< 1000
13,"Cn1cc(CNc2ncc3nnn(-c4ccc(Cl)c(F)c4)c3n2)cn1 [B4, [3-(4-chloro-3-fluoro-phenyl)-3H-[1,2,3]triazolo[4,5-d]pyrimidin-5-yl]-(1-methyl-1H-pyrazol-4-ylmethyl)-amine]",1000 to 5000
14,"CCOc1ccc(-n2nnc3cnc(NCCc4cnn(C)c4)nc32)cc1 [B7, [3-(4-ethoxy-phenyl)-3H-[1,2,3]triazolo[4,5-d]pyrimidin-5-yl]-[2-(1-methyl-1H-pyrazol-4-yl)-ethyl]-amine]",< 1000
15,"CCOc1ccc(-n2nnc3cnc(NCCc4cn[nH]c4)nc32)cc1 [B9, [3-(4-ethoxy-phenyl)-3H-[1,2,3]triazolo[4,5-d]pyrimidin-5-yl]-[2-(1H-pyrazol-4-yl)-ethyl]-amine]",< 1000
16,"COc1ccc(-n2nnc3cnc(NCCc4ccccc4)nc32)cc1 [B10, [3-(4-methoxy-phenyl)-3H-[1,2,3]triazolo[4,5-d]pyrimidin-5-yl]-phenethyl-amine]",1000 to 5000

# Other lines, results leading:
row,IC50 [nM],SMILES
1,< 1000,"COc1ccc(-n2nnc3cnc(N[C@@H]4CCN(C(=O)CN(C)C)C4)nc32)cc1 [A83, 2-dimethylamino-1-{(R)-3-[3-(4-methoxy-phenyl)-3H-[1,2,3]triazolo[4,5-d]-pyrimidin-5-ylamino]-pyrrolidin-1-yl}-ethanone formate]"
2,1000 to 5000,"COc1ccc(-n2nnc3cnc(NC4CCNC(=O)C4)nc32)cc1 (stereo not shown) [A87, 4-[3-(4-methoxy-phenyl)-3H-[1,2,3]triazolo[4,5-d]pyrimidin-5-ylamino]-piperidin-2-one]"
3,1000 to 5000,"COc1ccc(-n2nnc3cnc(N[C@H]4CC[C@@H](NC(=O)OCc5ccccc5)C4)nc32)cc1 [A89, {(1R,3S)-3-[3-(4-methoxy-phenyl)-3H-[1,2,3]triazolo[4,5-d]pyrimidin-5-ylamino]-cyclopentyl}-carbamic acid benzyl ester]"
4,1000 to 5000,"COc1ccc(-n2nnc3cnc(N[C@H]4CCN(C(=O)CN(C)C)C4)nc32)cc1 [A91, 2-dimethylamino-1-{(S)-3-[3-(4-methoxy-phenyl)-3H-[1,2,3]triazolo[4,5-d]-pyrimidin-5-ylamino]-pyrrolidin-1-yl}-ethanone formate]"
5,1000 to 5000,"COc1ccc(-n2nnc3cnc(N[C@H]4CCN(C(=O)CCN(C)C)C4)nc32)cc1 [A92, 3-dimethylamino-1-{(S)-3-[3-(4-methoxy-phenyl)-3H-[1,2,3]triazolo[4,5-d]-pyrimidin-5-ylamino]-pyrrolidin-1-yl}-propan-1-one formate]"
6,< 1000,"COc1ccc(-n2nnc3cnc(N[C@@H]4CC[C@H](C(=O)N5CCN(C)CC5)C4)nc32)cc1 [A97, {(1S,3R)-3-[3-(4-methoxy-phenyl)-3H-[1,2,3]triazolo[4,5-d]pyrimidin-5-ylamino]-cyclopentyl}-(4-methyl-piperazin-1-yl)-methanone]"
7,< 1000,"COc1ccc(-n2nnc3cnc(N[C@@H]4CCOC4)nc32)cc1 [A98, [3-(4-methoxy-phenyl)-3H-[1,2,3]triazolo[4,5-d]pyrimidin-5-yl]-(R)-tetrahydrofuran-3-yl-amine]"
8,< 1000,"COC(=O)[C@H]1CC[C@H](Nc2ncc3nnn(-c4ccc(OC)cc4)c3n2)C1 [A110, (1S,3S)-3-[3-(4-methoxy-phenyl)-3H-[1,2,3]triazolo[4,5-d]pyrimidin-5-ylamino]-cyclopentanecarboxylic acid methyl ester]"
9,< 1000,"COC(=O)[C@@H]1CC[C@@H](Nc2ncc3nnn(-c4ccc(OC)cc4)c3n2)C1 [A113, (1R,3R)-3-[3-(4-methoxy-phenyl)-3H-[1,2,3]triazolo[4,5-d]pyrimidin-5-ylamino]-cyclopentanecarboxylic acid methyl ester]"
10,< 1000,"COc1ccc(-n2nnc3cnc(N[C@@H]4CC[C@@H](C(=O)O)C4)nc32)cc1 [A139, (1R,3R)-3-[3-(4-methoxy-phenyl)-3H-[1,2,3]triazolo[4,5-d]pyrimidin-5-ylamino]-cyclopentanecarboxylic acid]"
11,< 1000,"CCOc1ccc(-n2nnc3cnc(N[C@@H]4CC[C@H](C(N)=O)C4)nc32)cc1 [A149, (1S,3R)-3-[3-(4-ethoxy-phenyl)-3H-[1,2,3]triazolo[4,5-d]pyrimidin-5-ylamino]-cyclopentanecarboxylic acid amide]"
12,< 1000,"COc1c(F)cc(-n2nnc3cnc(N[C@@H]4CC[C@@H](C(N)=O)C4)nc32)cc1F [A163, (1R,3R)-3-[3-(3,5-difluoro-4-methoxy-phenyl)-3H-[1,2,3]triazolo[4,5-d]pyrimidin-5-ylamino]-cyclopentanecarboxylic acid amide]"
13,< 1000,"COCCOc1ccc(-n2nnc3cnc(N[C@@H]4CC[C@H](C(N)=O)C4)nc32)cc1 [A166, (1S,3R)-3-{3-[4-(2-methoxy-ethoxy)-phenyl]-3H-[1,2,3]triazolo[4,5-d]pyrimidin-5-ylamino}-cyclopentanecarboxylic acid amide]"
14,< 1000,"NC(=O)[C@H]1CC[C@@H](Nc2ncc3nnn(-c4ccc(I)cc4)c3n2)C1 [A171, (1S,3R)-3-[3-(4-iodo-phenyl)-3H-[1,2,3]triazolo[4,5-d]pyrimidin-5-ylamino]-cyclopentanecarboxylic acid amide]"
15,< 1000,"COc1ccc(-n2nnc3cnc(N[C@@H]4CCC[C@@H](O)C4)nc32)cc1 [A201, (1R,3R)-3-[3-(4-methoxy-phenyl)-3H-[1,2,3]triazolo[4,5-d]pyrimidin-5-ylamino]-cyclohexanol]"
16,< 1000,"COc1ccc(-n2nnc3cnc(N[C@@H]4CC[C@H](c5ncc(C)o5)C4)nc32)cc1 [A267, [3-(4-methoxy-phenyl)-3H-[1,2,3]triazolo[4,5-d]pyrimidin-5-yl]-[(1R,3S)-3-(5-methyl-oxazol-2-yl)-cyclopentyl]-amine]"
17,< 1000,"COc1ccc(-n2nnc3cnc(N[C@@H]4CC[C@@H](N5CCCC5=O)C4)nc32)cc1 [A291, 1-{(1R,3R)-3-[3-(4-methoxy-phenyl)-3H-[1,2,3]triazolo[4,5-d]pyrimidin-5-ylamino]-cyclopentyl}-pyrrolidin-2-one]"
18,1000 to 5000,"COCCOc1ccc(-n2nnc3cnc(NCc4cnn(C)c4)nc32)cc1 [B6, {3-[4-(2-methoxy-ethoxy)-phenyl]-3H-[1,2,3]triazolo[4,5-d]pyrimidin-5-yl}-(1-methyl-1H-pyrazol-4-ylmethyl)-amine]"
